In patent US20250281517A1, “SENOLYSIS BY AMMONIA-LOWERING COMPONENT” (TAZ Inc., priority 2022, published 2025):

Key:
[1] = test system: p21; assay: mRNA expression level of p21, a marker of senescent cells, in tissues of aged mice (real-time RT-PCR, GAPDH as internal standard); type: in vivo; settings: aged male C57BL/6J mice (78 weeks old), test substance in drinking water ad libitum for one month, compared to aged mice having no additional administration
Experimental: (§1) As animals, experiments was performed using 7 young mice (male C57BL/6J mice, 7 weeks old) and 28 aged mice (male C57BL/6J-Aged mice, 78 weeks old).
(§2) Group 1 was constituted of young mice, and aged mice were divided into 4 groups each consisting of 7 mice (Groups 2 to 5) and the experimental conditions of individual groups are set as shown in the Table below.
(§3) As explained below, water comprising a test substance was given to the mice of Group 3 to Group 5.
The each types of drinking water which were prepared by adding a test substance as mentioned above was given to mice of each of the groups ad libitum, and the test substance was orally administered for one month. One month after the initiation of the experiment, all mice were sacrificed and dissected. […]
(§4) The RNA was purified with 75% ethanol, evaporated to dry under reduced pressure, and dissolved in 50 micro l of RNA-free water. Using NanoDrop ND-1000 (NanoDrop Technologies), absorbance was measured at 260 nm and 280 nm to determination of an absorbance ratio (A260/280 nm), RNA purity was confirmed by checking whether or not the absorbance ratio falls within the range of 1.9 to 2.1.
Quantitative real-time PCR was performed using total RNA extracted from the tissue for analysis of mRNA expressions of senescence markers p16 and p21 commonly known in the technical field. […]

[2] = test system: p16; assay: mRNA expression level of p16, a marker of senescent cells, in tissues of aged mice (real-time RT-PCR, GAPDH as internal standard); type: in vivo; settings: aged male C57BL/6J mice (78 weeks old), test substance in drinking water ad libitum for one month, compared to aged mice having no additional administration; for mRNA expression level of marker p16 for senescent cells in the hippocampus: FIG. 3
Experimental: as §1, §2, §3
The each types of drinking water which were prepared by adding a test substance as mentioned above was given to mice of each of the groups ad libitum, and the test substance was orally administered for one month. One month after the initiation of the experiment, all mice were sacrificed and dissected. From each of the mice, the liver, kidney, hippocampus and skeletal muscle were collected for measurement markers for senescent cells.
The tissues were collected from mice at the time of dissection and soaked in RNAlater (Ambion) overnight and thereafter stored at −80° C. Total RNA was extracted from the liver tissue by the TRIzol-chroloform method.
The tissue extracted from RNAlater (50 to 100 mg) was put in 1 ml of TRIzol Reagent (Invitrogen Life Technologies), crushed. After standing still at room temperature for 5 minutes, 0.2 ml of chloroform was added and stirred. After standing still at room temperature for 2 to 3 minutes, the mixture was centrifuged at 4° C. and 12,000×g for 15 minutes. The upper layer (250 micro l) was recovered and 0.5 ml of isopropanol was added. […]
as §4
Quantitative real-time PCR was performed using total RNA extracted from the tissue for analysis of mRNA expressions of senescence markers p16 and p21 commonly known in the technical field.
From the total RNA, CDNA was synthesized using PrimeScript (Registered trademark) RT reagent Kit (Perfect Real Time) in accordance with the protocol of the manufacturer. Then, CDNA was amplified by Thermal Cycler Dice Real Time System TP800 (Takara Bio) and fluorescence was detected by SYBR (Registered trademark) Premix Ex Taq™ (Perfect Real Time) and real-time PCR detection system (Takara Bio). […]
Using the mRNA expression of glyceraldehyde-3-phosphate dehydrogenase (GAPDH) as an internal standard for correction, the relative values of mRNAs of interest were calculated. […]

Row | Compound | mRNA expression level of marker p21 for senescent cells in the kidney ([1]; kidney, FIG. 1) | mRNA expression level of marker p21 for senescent cells in the liver ([1]; liver, FIG. 2, upper panel) | mRNA expression level of marker p16 for senescent cells in the hippocampus [2] | mRNA expression level of marker p16 for senescent cells in the liver ([2]; liver, FIG. 2, lower panel) | mRNA expression level of marker p16 for senescent cells in the skeletal muscle ([2]; skeletal muscle, FIG. 4)
1 | OC[C@H]1O[C@@H](O[C@@H]2[C@@H](CO)OC(O)(CO)[C@H]2O)[C@H](O)[C@@H](O)[C@H]1O (mixture of isomers) [lactulose] | significantly decreased | tended to decrease | decreased, although not significantly | significantly decreased | decreased, although not significantly
2 | Cl.NCCC[C@H](N)C(=O)O [ornithine, L-ornithine hydrochloride] | – | – | decreased, although not significantly | – | –
